{"source": "paper PMC7377239", "about": "“Cardiovascular Effects of Polychlorinated Biphenyls and Their Major Metabolites” (Environmental Health Perspectives, 2020)", "key": {"[1]": {"test_system": "iCell cardiomyocytes (human iPSC-derived cardiomyocytes)", "assay": "High-content imaging of cytotoxicity and mitochondrial integrity in iPSC-CMs", "assay_type": "cell-based", "settings": "Homo sapiens, Cardiomyocyte, cardiomyocytes (cm)", "procedure,_shortened": "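Readouts from high-content images were normalized to vehicle controls containing 0.5% vol/vol DMSO. They were fit to a four-parameter logistic model in R. Points of departure were set using a cutoff of one standard deviation across vehicle control means. Where no concentration–response was seen, the top tested concentration of 100μM was assigned as the no observable adverse effect level.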"}, "HUVECs": {"test_system": "HUVECs", "assay": "High-content imaging cytotoxicity in HUVECs, 24 h", "assay_type": "cell-based, human", "settings": "Homo sapiens, HUVEC, 24 h, HUVEC, 24 hr", "procedure,_shortened": "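Point-of-departure values derive from four-parameter logistic fits of vehicle-normalized imaging phenotypes (Hoechst 33342, MitoTracker Orange, calcein AM). The fits follow 24 h exposure of HUVEC monolayers at 37°C and 5% CO2, with a top tested concentration of 100μM.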"}}, "note": "Read-outs that look alike come from different tables or passages of the source."}
{"smiles": "Clc1cc(Cl)c(-c2cc(Cl)c(Cl)cc2Cl)cc1Cl", "note": "[PCB 153, 2,2′,4,4′,5,5′-hexachlorobiphenyl]", "values": [{"measurement": "minimal effective concentration", "setting": "[1]; 1.5 h, cam, 90 min, read-out: POD cm.cam.90min", "value": 20.6, "unit": "µM"}, {"measurement": "minimal effective concentration", "setting": "[1]; 1.5 h, mii, 90 min, read-out: POD cm.mii.90min", "value": 100, "unit": "µM"}, {"measurement": "minimal effective concentration", "setting": "[1]; 1.5 h, mito, 90 min, read-out: POD cm.mito.90min", "value": 19.8, "unit": "µM"}, {"measurement": "minimal effective concentration", "setting": "[1]; 1.5 h, tc, 90 min, read-out: POD cm.tc.90min", "value": 23.2, "unit": "µM"}, {"measurement": "minimal effective concentration", "setting": "[1]; 24 h, cam, 24 hrs, read-out: POD cm.cam.24hrs", "value": 11.6, "unit": "µM"}, {"measurement": "minimal effective concentration", "setting": "[1]; 24 h, mii, 24 hrs, read-out: POD cm.mii.24hrs", "value": 39.9, "unit": "µM"}, {"measurement": "minimal effective concentration", "setting": "[1]; 24 h, mito, 24 hrs, read-out: POD cm.mito.24hrs", "value": 10.5, "unit": "µM"}, {"measurement": "minimal effective concentration", "setting": "[1]; 24 h, tc, 24 hrs, read-out: POD cm.tc.24hrs", "value": 11.1, "unit": "µM"}, {"measurement": "minimal effective concentration", "setting": "HUVECs; cyto, read-out: POD huvec.cyto.24hr", "value": 0.0171, "unit": "µM"}, {"measurement": "minimal effective concentration", "setting": "HUVECs; mito, read-out: POD huvec.mito.24hr", "value": 0.75, "unit": "µM"}, {"measurement": "minimal effective concentration", "setting": "HUVECs; mitoint, read-out: POD huvec.mitoint.24hr", "value": 0.83, "unit": "µM"}, {"measurement": "minimal effective concentration", "setting": "HUVECs; nma, read-out: POD huvec.nma.24hr", "value": 1.01, "unit": "µM"}, {"measurement": "minimal effective concentration", "setting": "HUVECs; tc, read-out: POD huvec.tc.24hr", "value": 0.0171, "unit": "µM"}]}
